Assay results from ChEMBL document CHEMBL4411268, “Phytosterol and γ-Oryzanol Conjugates: Synthesis and Evaluation of their Antioxidant, Antiproliferative, and Anticholesterol Activities” (2018).

Key:
MDA-MB-231 = assay: Antiproliferative activity against human MDA-MB-231 cells assessed as growth inhibition after 72 hrs by MTT assay; type: functional; details: MDA-MB-231, 72 h
HeLa = assay: Antiproliferative activity against human HeLa cells assessed as growth inhibition after 72 hrs by MTT assay; type: functional
Daoy = assay: Antiproliferative activity against human DaOY cells assessed as growth inhibition after 72 hrs by MTT assay; type: functional
[1] = Metal chelating activity assessed as compound-Fe2+ complex formation by measuring chelated ferrous ion at 0.18 umol/ml preincubated with Mohr's salt followed by ferozine addition and measured after 10 mins
[2] = Antioxidant activity assessed as DPPH radical scavenging activity at 0.18 umol/ml incubated for 30 mins under dark condition relative to control; type: functional
[3] = Antioxidant activity against linoleic acid assessed as inhibition of beta-carotene bleaching at 0.18 umol/ml measured at 15 mins interval for 1 hr; type: functional

In the case of `C=C(CC[C@@H](C)[C@H]1CC[C@@]2(C)[C@@H]3CC[C@H]4C(C)(C)[C@@H](OC(=O)[C@H](CSSC[C@H](NC(=O)OC(C)(C)C)C(=O)O[C@H]5CC[C@]67C[C@@]68CC[C@]6(C)[C@@H]([C@H](C)CCC(=C)C(C)C)CC[C@@]6(C)[C@@H]8CC[C@H]7C5(C)C)NC(=O)OC(C)(C)C)CC[C@@]45C[C@]35CC[C@]12C)C(C)C`, the GI50 (MDA-MB-231) is reported as > 10000 nM, the GI50 (HeLa) is reported as > 10000 nM and the GI50 (Daoy) is reported as > 10000 nM. For the same compound, the Activity [1] was 0%, the inhibition [2] was 0% and the inhibition [3] was 5%.
Compound `COc1cccc2c1C(=O)c1c(O)c3c(c(O)c1C2=O)C[C@@](O)(C(=O)CO)C[C@@H]3O[C@H]1C[C@H](N)[C@H](O)[C@H](C)O1` [DOXORUBICIN] has a GI50 (MDA-MB-231) of 46 nM, a GI50 (HeLa) of 93 nM and a GI50 (Daoy) of 16 nM.
With `O=c1c(O)c(-c2ccc(O)c(O)c2)oc2cc(O)cc(O)c12` the Activity [1] was 22%.
